# Source: ChEMBL document CHEMBL1201862, “PubChem BioAssay data set” (2004)
# Activity calls are given as the source filed them.
# Tests used:
# [1] = target: Photoreceptor-specific nuclear receptor (Homo sapiens, UniProt Q9Y5X4); experiment: NR2E3 inverse agonists, dose response, biochemical, TR-FRET (AID 463256); assay type: functional
# [2] = target: Peroxisome proliferator-activated receptor gamma/Nuclear receptor corepressor 2 (Homo sapiens, UniProt P37231+Q9Y618); experiment: Counterscreen for NR2E3 inverse agonists: TR-FRET-based biochemical high throughput dose response assay to identify inverse agonists of the interaction between peroxisome proliferator-activated receptor gamma (PPARg) and nuclear receptor co-repressor 2 (NCOR2).; assay type: functional
# [3] = system: BJ; experiment: cells; assay type: functional, cell-based; settings: Homo sapiens
# [4] = cells; assay type: functional, cell-based
# [5] = system: BJ; experiment: cytotoxicity toward BJ-TERT fibroblasts, dose response, cell-based, RAS-independent, luminescence (AID 1933); assay type: functional; settings: Homo sapiens
# [6] = luciferase reporter signal reduction – luminescence, H4-C neuroglioblastoma cells, dose response (AID 2458); assay type: functional, cell-based;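 also: H4 neuroglioblastoma cells stably carrying a luciferase reporter gene fusion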
# [7] = system: BJ; experiment: cytotoxicity toward BJ-TERT-LT-ST fibroblasts, dose response, cell-based, RAS-independent, luminescence (AID 1935); assay type: functional; settings: Homo sapiens;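 also: BJ fibroblasts immortalized with TERT plus LT and ST oncogenes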
# [8] = inhibitors of SNCA 5'UTR-driven translation, confirmation, luminescence, H4 neuroglioblastoma cells, dose confirmation (AID 2454); assay type: functional, cell-based;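 also: H4 neuroglioblastoma cells carrying an alpha-synuclein 5'UTR luciferase reporter; potency for inhibition of the luciferase signal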
# [9] = inhibitors of SNCA 5'UTR-driven reporter translation, confirmation, H4 neuroglioma cells, luminescence (AID 1988); assay type: functional, cell-based
# [10] = cytotoxicity toward DRD oncogenic fibroblasts, dose response, cell-based, non-viral oncogenic, luminescence (AID 1934); assay type: functional; settings: Homo sapiens
# [11] = target: Luciferin 4-monooxygenase (Photinus pyralis, UniProt P08659); experiment: Counter Screen for Luciferase-based Assay Positives. [Related pubchem assays: 620, 618, 411 ]
# [12] = system: HT-1080; experiment: cytotoxicity in HT1080 fibrosarcoma cells, cell-based, fluorescence readout (AID 620); assay type: functional; settings: Homo sapiens
# [13] = cells
# [14] = target: T1, Oxysterols receptor LXR-beta (Homo sapiens, UniProt P55055); assay type: functional, cell-based;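 also: Cell-based luminescence dose-response assay of agonist activity at LXR, run as a confirmatory counterscreen to a daf-12 agonist screen; HEK293 cells with Gal4-LXR fusion and GAL4-driven luciferase reporter; agonist potency from rising luciferase signal of a Gal4-LXR reporter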
# T1 sequence (P55055 whole entry): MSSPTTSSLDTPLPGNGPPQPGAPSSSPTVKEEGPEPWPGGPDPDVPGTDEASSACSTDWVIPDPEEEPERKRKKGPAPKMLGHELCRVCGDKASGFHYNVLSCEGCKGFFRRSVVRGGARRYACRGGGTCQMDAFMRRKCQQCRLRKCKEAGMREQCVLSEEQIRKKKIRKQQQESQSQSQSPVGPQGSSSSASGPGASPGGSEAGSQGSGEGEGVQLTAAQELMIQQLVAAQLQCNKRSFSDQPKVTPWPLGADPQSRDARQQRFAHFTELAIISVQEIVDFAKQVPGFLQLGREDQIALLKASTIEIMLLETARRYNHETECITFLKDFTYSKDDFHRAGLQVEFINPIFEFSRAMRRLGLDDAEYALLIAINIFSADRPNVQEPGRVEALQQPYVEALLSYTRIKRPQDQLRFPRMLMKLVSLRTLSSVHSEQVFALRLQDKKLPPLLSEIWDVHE
# [15] = target: T2, Orexin/Hypocretin receptor type 1 (Homo sapiens, UniProt O43613); experiment: Homogeneous Time Resolved Fluorescence (HTRF)-based cell-based high throughput dose response assay for antagonists of the orexin 1 receptor (OX1R; HCRTR1). [Related pubchem assays (depositor defined):AID434989, AID435008, AID463079, AID485270, AID492963, AID492964, AID492965, AID493232, AID504717, AID504718]; assay type: functional
# T2 sequence (O43613 whole entry): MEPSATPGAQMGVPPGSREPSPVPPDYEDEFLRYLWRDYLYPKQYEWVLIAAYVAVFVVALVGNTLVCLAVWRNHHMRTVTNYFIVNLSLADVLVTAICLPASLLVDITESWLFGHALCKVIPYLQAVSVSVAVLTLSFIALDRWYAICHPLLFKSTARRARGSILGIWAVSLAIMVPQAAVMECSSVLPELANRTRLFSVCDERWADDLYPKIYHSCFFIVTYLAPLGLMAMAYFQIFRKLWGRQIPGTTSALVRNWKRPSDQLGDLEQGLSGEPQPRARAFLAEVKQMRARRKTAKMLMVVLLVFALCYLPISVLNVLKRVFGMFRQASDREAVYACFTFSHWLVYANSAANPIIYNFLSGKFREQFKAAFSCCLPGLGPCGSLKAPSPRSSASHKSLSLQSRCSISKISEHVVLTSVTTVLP
# [16] = target: T2, Orexin/Hypocretin receptor type 1; experiment: Fluorescence-based cell-based high throughput dose response assay for antagonists of the orexin 1 receptor (OX1R; HCRTR1). [Related pubchem assays (depositor defined):AID434989, AID435008, AID463079, AID485270, AID492963, AID492964, AID492965, AID493232, AID504717, AID504718]; assay type: functional
# [17] = target: T3, Orexin receptor type 2 (Homo sapiens, UniProt O43614); experiment: Counterscreen assay for antagonists of the orexin 1 receptor (OX1R; HCRTR1): Homogeneous Time Resolved Fluorescence (HTRF)-based cell-based dose response assay for antagonists of the orexin 2 receptor (OX2R; HCRTR2), run by assay provider.; assay type: functional
# T3 sequence (O43614 whole entry): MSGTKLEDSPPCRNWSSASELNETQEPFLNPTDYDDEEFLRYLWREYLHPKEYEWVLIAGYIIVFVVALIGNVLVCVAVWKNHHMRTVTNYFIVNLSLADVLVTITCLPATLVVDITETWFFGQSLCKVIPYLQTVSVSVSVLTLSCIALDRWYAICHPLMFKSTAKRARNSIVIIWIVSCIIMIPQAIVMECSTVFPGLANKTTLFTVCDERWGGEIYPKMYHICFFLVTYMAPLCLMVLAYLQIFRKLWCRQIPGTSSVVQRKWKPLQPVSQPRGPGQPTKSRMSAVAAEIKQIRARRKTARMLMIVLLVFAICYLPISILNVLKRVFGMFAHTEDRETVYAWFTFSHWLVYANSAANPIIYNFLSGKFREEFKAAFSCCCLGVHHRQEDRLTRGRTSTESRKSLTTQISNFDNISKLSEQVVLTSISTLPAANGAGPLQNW
# [18] = target: T3, Orexin receptor type 2; experiment: Counterscreen assay for antagonists of the orexin 1 receptor (OX1R; HCRTR1): Fluorescence-based cell-based dose response assay for antagonists of the orexin 2 receptor (OX2R; HCRTR2), run by assay provider.; assay type: functional
# [19] = system: CHO-K1; experiment: (§1) Counterscreen for antagonists of the orexin 1 receptor (OX1R; HCRTR1): Homogeneous time resolved fluorescence (HTRF)-based cell-based dose response assay to identify antagonists of the parental CHO-K1 cell line. [Related pubchem assays (depositor defined):AID434989, AID435008, AID463079, AID485270, AID492963, AID492964, AID492965, AID493232, AID504699, AID504701]; assay type: functional; settings: Cricetulus griseus
# [20] = target: T4, Mannose-6-phosphate isomerase (Homo sapiens, UniProt P34949); experiment: inhibitors of human PMI, primary screen, biochemical, fluorescence intensity, coupled assay (AID 1209)
# T4 sequence (P34949 whole entry): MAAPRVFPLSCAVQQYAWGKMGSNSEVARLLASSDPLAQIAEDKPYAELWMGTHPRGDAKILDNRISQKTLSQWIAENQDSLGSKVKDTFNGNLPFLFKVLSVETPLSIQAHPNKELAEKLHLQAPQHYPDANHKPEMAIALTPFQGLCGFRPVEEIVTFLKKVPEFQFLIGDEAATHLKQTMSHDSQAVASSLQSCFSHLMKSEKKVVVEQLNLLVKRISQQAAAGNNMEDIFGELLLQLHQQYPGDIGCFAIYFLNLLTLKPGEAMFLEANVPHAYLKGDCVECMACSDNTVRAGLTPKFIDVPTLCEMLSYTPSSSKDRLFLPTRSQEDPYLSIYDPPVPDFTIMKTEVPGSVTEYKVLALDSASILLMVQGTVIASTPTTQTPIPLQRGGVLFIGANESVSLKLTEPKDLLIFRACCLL
# [21] = as §1, with “Fluorescence-based” for “Homogeneous time resolved fluorescence (HTRF)-based”, “cell-based high throughput” for “cell-based”, “CHO” for “CHO-K1”; assay type: functional
# [22] = target: T5, Aspartyl aminopeptidase (Plasmodium falciparum 3D7, UniProt Q8I2J3)
# T5 sequence (Q8I2J3 whole entry): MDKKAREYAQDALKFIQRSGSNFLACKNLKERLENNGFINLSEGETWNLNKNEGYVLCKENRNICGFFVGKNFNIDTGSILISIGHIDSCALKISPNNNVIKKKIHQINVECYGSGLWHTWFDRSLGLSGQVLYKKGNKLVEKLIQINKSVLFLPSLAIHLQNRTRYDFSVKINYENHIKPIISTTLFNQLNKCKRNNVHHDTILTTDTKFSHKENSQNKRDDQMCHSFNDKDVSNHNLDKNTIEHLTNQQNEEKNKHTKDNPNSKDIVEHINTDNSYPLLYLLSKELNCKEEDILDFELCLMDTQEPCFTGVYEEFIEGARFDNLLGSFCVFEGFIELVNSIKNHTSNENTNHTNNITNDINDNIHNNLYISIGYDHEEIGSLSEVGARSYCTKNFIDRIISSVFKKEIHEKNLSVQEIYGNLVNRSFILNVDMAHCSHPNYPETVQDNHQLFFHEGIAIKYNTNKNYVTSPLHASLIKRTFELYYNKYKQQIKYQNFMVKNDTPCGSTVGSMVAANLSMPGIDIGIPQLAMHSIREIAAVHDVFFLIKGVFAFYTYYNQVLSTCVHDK
# [23] = target: Procathepsin L (Homo sapiens, UniProt P07711)
# [24] = Luminescence Cell-Based Dose Retest to Confirm Inhibitors of Cancer Stem Cells. [Related pubchem assays (depositor defined):AID2717, AID2721]; assay type: functional; settings: Homo sapiens
# [25] = target: T4, Mannose-6-phosphate isomerase; experiment: human PMI inhibitors, high substrate, primary screen, biochemical, fluorescence intensity, high mannose 6-phosphate (AID 1220)
# 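For AC50 in this document: cells exposed to compound for roughly 70 hours or longer before luminescence read.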
# Sequence of Peroxisome proliferator-activated receptor gamma/Nuclear receptor corepressor 2 (P37231 whole entry): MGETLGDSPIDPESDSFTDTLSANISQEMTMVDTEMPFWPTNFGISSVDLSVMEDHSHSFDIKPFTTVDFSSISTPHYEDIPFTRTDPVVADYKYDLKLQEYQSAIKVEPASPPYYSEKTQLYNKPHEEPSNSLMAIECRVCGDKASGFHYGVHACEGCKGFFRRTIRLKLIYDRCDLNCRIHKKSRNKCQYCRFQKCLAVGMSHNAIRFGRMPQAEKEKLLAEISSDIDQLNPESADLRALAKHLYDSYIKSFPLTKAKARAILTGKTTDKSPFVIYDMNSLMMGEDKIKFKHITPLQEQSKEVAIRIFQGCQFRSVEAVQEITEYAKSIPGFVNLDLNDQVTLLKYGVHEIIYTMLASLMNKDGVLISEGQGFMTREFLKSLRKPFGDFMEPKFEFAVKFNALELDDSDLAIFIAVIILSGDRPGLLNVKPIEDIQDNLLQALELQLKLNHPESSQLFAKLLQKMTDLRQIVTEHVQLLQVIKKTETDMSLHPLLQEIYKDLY
# Sequence of Peroxisome proliferator-activated receptor gamma/Nuclear receptor corepressor 2 (Q9Y618 whole entry): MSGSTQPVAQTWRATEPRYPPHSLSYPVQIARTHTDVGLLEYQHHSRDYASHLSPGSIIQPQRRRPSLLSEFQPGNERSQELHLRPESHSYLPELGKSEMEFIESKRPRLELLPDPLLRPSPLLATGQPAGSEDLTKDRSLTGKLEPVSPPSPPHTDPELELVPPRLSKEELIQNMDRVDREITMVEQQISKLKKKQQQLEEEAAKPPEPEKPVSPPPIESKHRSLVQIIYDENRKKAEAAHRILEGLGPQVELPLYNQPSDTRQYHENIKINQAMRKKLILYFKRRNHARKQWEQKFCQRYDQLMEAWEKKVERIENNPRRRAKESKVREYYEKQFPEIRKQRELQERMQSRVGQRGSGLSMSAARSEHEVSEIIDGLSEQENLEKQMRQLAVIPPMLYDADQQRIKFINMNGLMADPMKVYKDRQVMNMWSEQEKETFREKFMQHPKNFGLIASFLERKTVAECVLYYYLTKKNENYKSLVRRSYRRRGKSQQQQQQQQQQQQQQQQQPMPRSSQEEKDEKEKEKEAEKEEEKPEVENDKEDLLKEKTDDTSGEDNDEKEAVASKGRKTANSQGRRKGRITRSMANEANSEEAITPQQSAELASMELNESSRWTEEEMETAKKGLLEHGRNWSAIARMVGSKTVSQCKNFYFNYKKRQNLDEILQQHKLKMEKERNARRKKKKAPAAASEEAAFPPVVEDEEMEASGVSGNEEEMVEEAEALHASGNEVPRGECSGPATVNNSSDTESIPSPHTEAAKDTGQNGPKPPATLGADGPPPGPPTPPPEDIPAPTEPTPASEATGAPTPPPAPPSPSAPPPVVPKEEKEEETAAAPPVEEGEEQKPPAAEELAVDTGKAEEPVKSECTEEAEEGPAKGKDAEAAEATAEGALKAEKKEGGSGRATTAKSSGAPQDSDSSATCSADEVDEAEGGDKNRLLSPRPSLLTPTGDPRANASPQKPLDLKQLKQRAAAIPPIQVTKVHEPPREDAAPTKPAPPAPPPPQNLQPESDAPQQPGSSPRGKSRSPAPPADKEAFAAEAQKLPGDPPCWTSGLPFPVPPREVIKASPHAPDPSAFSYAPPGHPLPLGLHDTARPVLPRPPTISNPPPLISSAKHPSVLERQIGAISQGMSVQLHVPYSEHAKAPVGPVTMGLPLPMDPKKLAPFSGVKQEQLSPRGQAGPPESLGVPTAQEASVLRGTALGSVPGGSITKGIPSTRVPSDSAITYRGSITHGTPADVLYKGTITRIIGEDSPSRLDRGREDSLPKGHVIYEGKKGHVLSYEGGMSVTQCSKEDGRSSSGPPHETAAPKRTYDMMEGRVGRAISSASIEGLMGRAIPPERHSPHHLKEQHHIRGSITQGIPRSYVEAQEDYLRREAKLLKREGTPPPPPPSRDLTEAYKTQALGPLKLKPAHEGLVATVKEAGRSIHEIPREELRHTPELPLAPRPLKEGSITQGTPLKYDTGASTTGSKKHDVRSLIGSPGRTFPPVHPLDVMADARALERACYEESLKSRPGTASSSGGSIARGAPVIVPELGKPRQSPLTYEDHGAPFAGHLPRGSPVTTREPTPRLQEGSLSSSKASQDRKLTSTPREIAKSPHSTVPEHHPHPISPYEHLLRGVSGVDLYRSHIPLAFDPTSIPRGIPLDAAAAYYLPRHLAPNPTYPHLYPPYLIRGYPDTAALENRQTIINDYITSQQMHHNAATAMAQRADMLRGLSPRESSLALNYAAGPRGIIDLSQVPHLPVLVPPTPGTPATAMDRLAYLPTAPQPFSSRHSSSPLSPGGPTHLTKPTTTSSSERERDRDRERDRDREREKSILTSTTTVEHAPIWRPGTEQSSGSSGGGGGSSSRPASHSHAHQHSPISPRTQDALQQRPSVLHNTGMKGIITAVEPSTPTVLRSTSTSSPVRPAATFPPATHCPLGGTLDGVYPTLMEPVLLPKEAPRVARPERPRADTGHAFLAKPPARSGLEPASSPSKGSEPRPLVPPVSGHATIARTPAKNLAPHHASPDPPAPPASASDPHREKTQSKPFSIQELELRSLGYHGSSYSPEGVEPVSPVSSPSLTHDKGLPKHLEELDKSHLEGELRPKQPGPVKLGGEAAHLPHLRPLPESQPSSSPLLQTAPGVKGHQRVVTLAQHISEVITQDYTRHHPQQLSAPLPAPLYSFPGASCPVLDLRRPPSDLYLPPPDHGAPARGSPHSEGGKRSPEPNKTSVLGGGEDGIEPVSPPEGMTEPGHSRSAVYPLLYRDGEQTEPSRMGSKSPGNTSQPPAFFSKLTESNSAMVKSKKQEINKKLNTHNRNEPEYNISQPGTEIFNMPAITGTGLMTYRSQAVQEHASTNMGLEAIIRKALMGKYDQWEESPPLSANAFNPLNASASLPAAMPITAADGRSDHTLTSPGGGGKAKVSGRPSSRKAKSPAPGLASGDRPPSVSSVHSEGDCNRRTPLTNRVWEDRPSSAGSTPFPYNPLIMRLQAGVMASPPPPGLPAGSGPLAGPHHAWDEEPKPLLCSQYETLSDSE
# Sequence of Photoreceptor-specific nuclear receptor (Q9Y5X4 whole entry): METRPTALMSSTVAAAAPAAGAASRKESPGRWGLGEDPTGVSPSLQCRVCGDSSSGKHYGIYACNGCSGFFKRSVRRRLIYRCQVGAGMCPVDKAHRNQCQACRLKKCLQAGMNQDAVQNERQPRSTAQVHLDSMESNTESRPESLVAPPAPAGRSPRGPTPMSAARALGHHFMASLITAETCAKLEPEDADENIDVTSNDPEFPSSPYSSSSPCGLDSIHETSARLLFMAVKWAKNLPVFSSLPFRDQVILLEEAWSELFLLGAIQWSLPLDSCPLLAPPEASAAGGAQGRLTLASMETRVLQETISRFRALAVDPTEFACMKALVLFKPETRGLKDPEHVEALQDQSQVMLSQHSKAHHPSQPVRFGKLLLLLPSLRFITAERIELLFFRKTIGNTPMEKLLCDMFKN
# Sequence of Luciferin 4-monooxygenase (P08659 whole entry): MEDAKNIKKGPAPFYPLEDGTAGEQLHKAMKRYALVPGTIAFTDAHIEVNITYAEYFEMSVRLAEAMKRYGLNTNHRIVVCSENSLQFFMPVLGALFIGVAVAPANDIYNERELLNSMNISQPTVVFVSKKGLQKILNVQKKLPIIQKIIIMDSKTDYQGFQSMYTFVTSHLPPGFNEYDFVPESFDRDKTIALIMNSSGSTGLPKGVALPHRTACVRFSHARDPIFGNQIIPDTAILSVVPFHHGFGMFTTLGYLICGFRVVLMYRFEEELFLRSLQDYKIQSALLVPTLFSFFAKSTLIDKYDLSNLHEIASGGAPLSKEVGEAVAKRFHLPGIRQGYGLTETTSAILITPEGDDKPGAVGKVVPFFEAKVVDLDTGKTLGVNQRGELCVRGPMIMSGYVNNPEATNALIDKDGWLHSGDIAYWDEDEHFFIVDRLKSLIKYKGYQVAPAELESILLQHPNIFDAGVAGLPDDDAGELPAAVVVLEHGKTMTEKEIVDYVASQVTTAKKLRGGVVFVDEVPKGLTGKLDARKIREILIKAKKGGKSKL
# Sequence of Procathepsin L (P07711 whole entry): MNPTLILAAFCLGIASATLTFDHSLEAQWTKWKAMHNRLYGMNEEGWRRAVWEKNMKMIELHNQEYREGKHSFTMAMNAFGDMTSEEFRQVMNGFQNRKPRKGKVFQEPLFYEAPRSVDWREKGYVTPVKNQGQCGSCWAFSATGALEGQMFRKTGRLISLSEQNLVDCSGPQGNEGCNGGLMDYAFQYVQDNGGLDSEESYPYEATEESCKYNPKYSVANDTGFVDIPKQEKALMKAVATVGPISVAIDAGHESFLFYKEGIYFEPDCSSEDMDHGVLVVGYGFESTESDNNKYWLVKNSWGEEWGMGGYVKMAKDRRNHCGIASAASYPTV
smiles,measurement,setting,value
COc1cnn(-c2ccccc2)c(=O)c1SCc1ccc(Cl)c(Cl)c1,IC50,[1],5 µM (active)
same,IC50,[2],5.85 µM (active)
COC(=O)c1ccc(C)c(NS(=O)(=O)c2ccc(OC)cc2)c1,EC50,[3],1.61 µM (active)
same,EC50,[4],1.02 µM (active)
same,EC50,[5],0.689 µM (inconclusive)
same,EC50,[6],> 12 µM (not active)
same,EC50,[7],0.353 µM (inconclusive)
same,EC50,[8],0.834 µM (active)
same,EC50,[9],< 0.1 µM (active)
same,EC50,[10],0.682 µM (active)
Cc1cc(C)c2c(N)c(C(=O)Nc3nccs3)sc2n1,EC50,[11],> 100 µM (not active)
same,EC50,[12],> 50 µM (not active)
same,EC50,[13],> 67.5 µM (inactive)
same,EC50,[14],> 67.5 µM (inactive)
C=CCn1c(C)cc(C(=O)CSc2ccc(NC(C)=O)cc2)c1C,EC50,[11],0.77 µM (active)
same,EC50,[12],> 50 µM (not active)
CCc1c(C)sc(N=C(S)Nc2nc(C)cc(C)n2)c1C(=O)OC,IC50,[15],2.23 µM (active)
same,IC50,[16],4.29 µM (active)
same,IC50,[17],> 50 µM (inactive)
same,IC50,[18],15 µM (inactive)
same,IC50,[19],> 66.2 µM (inactive)
same,IC50,[20],> 50 µM (not active)
same,IC50,[21],> 49.8 µM (inactive)
COc1cc([N+](=O)[O-])ccc1NC(=O)Nn1cnnc1,IC50,[22],0.353 µM (active)
same,IC50,[23],> 59.6 µM (not active)
CCOC(=O)N1CCN(CCC(=O)c2ccc(Cl)cc2)CC1,AC50,[24],12 µM (active)
same,IC50,[25],> 50 µM (not active)
O=C(NCCO)c1cc2ccccc2cc1O,IC50,[20],> 50 µM (not active)
O=C(CSc1ccc(-c2cccs2)nn1)N1CCCCCC1,IC50,[1],4.73 µM (active)
same,IC50,[2],> 39.8 µM (not active)
CS(=O)(=O)N(CC(=O)N1CCC(C(N)=O)CC1)c1ccc(Oc2ccccc2)cc1,IC50,[1],1.05 µM (active)
same,IC50,[2],0.792 µM (active)
